Experimental data from ChEMBL document CHEMBL1131978, “3D QSAR studies on new oxazolidinone antibacterial agents by comparative molecular field analysis” (Bioorg Med Chem Lett, 1999).
Values after ≈ are worked out from the molar mass of the structure shown.

Test system: Staphylococcus aureus
Assay: In vitro antibacterial activity against the methicillin-resistant Staphylococcus aureus 88
Assay type: functional

SMILES | Log 1/MIC | MIC
CCCCCCCCCCS(=O)(=O)N[C@H](CCCCCC)COP(=O)(O)OCCO | -0.19 | 1.56 µg/mL (≈ 3.29 µM)
CC(=O)NC[C@H]1CN(c2ccc(N3CCN(C(=O)c4cccs4)CC3)c(F)c2)C(=O)O1 | -0.19 | 1.56 µg/mL (≈ 3.49 µM)
CC(=O)NC[C@H]1CN(c2ccc(N3CCN(C(=O)c4cc(COC(N)=O)no4)CC3)c(F)c2)C(=O)O1 | -0.19 | 1.56 µg/mL (≈ 3.09 µM)
CC(=O)NC[C@H]1CN(c2ccc(N3CCN(Cc4cc(-c5ccc(F)cc5)no4)CC3)c(F)c2)C(=O)O1 | -0.49 | 3.12 µg/mL (≈ 6.1 µM)
CC(=O)NC[C@H]1CN(c2ccc(N3CCN(Cc4cc(-c5ccc(C#N)cc5)no4)CC3)c(F)c2)C(=O)O1 | -0.8 | 6.25 µg/mL (≈ 12.1 µM)
CC(=O)NC[C@H]1CN(c2ccc(N3CCN(C(=O)c4nccs4)CC3)c(F)c2)C(=O)O1 | -0.19 | 1.56 µg/mL (≈ 3.49 µM)
COc1ccc(-c2cc(CN3CCN(c4ccc(N5C[C@H](CNC(C)=O)OC5=O)cc4F)CC3)on2)cc1OC | -0.49 | 3.12 µg/mL (≈ 5.64 µM)
CC(=O)NC[C@H]1CN(c2ccc(N3CCN(C(=O)c4cc(-c5cccs5)no4)CC3)c(F)c2)C(=O)O1 | -0.11 | 0.78 µg/mL (≈ 1.52 µM)
COc1cccc(-c2cc(CN3CCN(c4ccc(N5C[C@H](CNC(C)=O)OC5=O)cc4F)CC3)on2)c1 | -0.49 | 3.12 µg/mL (≈ 5.96 µM)
CC(=O)NC[C@H]1CN(c2ccc(N3CCN(C(=O)c4cc(C(=O)N(C)C)no4)CC3)c(F)c2)C(=O)O1 | -0.49 | 3.12 µg/mL (≈ 6.21 µM)
CC(=O)NC[C@H]1CN(c2ccc(N3CCN(C(=O)c4cc(Br)no4)CC3)c(F)c2)C(=O)O1 | 0.11 | 0.78 µg/mL (≈ 1.53 µM)
CC(=O)NC[C@H]1CN(c2ccc(N3CCN(C(=O)c4cc(-c5nccs5)no4)CC3)c(F)c2)C(=O)O1 | 0.41 | 0.39 µg/mL (≈ 0.758 µM)
CC(=O)NC[C@H]1CN(c2ccc(N3CCN(C(=O)c4cc(C(=O)O)no4)CC3)c(F)c2)C(=O)O1 | -2 | 100 µg/mL (≈ 210 µM)
CC(=O)NC[C@H]1CN(c2ccc(N3CCN(Cc4cc(-c5ccccn5)no4)CC3)c(F)c2)C(=O)O1 | -0.19 | 1.56 µg/mL (≈ 3.15 µM)
CC(=O)NC[C@H]1CN(c2ccc(N3CCN(C(=O)c4ccno4)CC3)c(F)c2)C(=O)O1 | -0.19 | 1.56 µg/mL (≈ 3.62 µM)
CC(=O)NC[C@H]1CN(c2ccc(N3CCN(Cc4cc(/C=C/c5ccccc5)no4)CC3)c(F)c2)C(=O)O1 | -1.4 | 25 µg/mL (≈ 48.1 µM)
CC(=O)NC[C@H]1CN(c2ccc(N3CCN(C(=O)c4cc(C)no4)CC3)c(F)c2)C(=O)O1 | -0.19 | 1.56 µg/mL (≈ 3.5 µM)

SMILES | Log 1/MIC | MIC
COc1cc(C(=O)N2CCN(c3ccc(N4C[C@H](CNC(C)=O)OC4=O)cc3F)CC2)on1 | -0.19 | 1.56 µg/mL (≈ 3.38 µM)
CC(=O)NC[C@H]1CN(c2ccc(N3CCN(C(=O)c4cc(C(F)(F)F)no4)CC3)c(F)c2)C(=O)O1 | -0.49 | 3.12 µg/mL (≈ 6.25 µM)
CC(=O)NC[C@H]1CN(c2ccc(N3CCN(C(=O)c4cc(COC(=O)N(C)C)no4)CC3)c(F)c2)C(=O)O1 | -0.49 | 3.12 µg/mL (≈ 5.86 µM)
CC(=O)NC[C@H]1CN(c2ccc(N3CCN(Cc4cc(-c5ccc(Cl)cc5)no4)CC3)c(F)c2)C(=O)O1 | -1.7 | 50 µg/mL (≈ 94.7 µM)
CC(=O)NC[C@H]1CN(c2ccc(N3CCN(C(=O)c4cc(C(N)=O)no4)CC3)c(F)c2)C(=O)O1 | -0.19 | 1.56 µg/mL (≈ 3.29 µM)
CC(=O)NC[C@H]1CN(c2ccc(N3CCN(Cc4cc(-c5ccc(Oc6ccccc6)cc5)no4)CC3)c(F)c2)C(=O)O1 | -2 | 100 µg/mL (≈ 171 µM)
CC(=O)NC[C@H]1CN(c2ccc(N3CCN(C(=O)c4cc(C#N)no4)CC3)c(F)c2)C(=O)O1 | -0.19 | 1.56 µg/mL (≈ 3.42 µM)
CC(=O)NC[C@H]1CN(c2ccc(N3CCN(C(=O)c4cc(-c5csnn5)no4)CC3)c(F)c2)C(=O)O1 | 0.11 | 0.78 µg/mL (≈ 1.51 µM)
CC(=O)NC[C@H]1CN(c2ccc(N3CCN(C(=O)c4cc(-c5cnsn5)no4)CC3)c(F)c2)C(=O)O1 | -0.19 | 1.56 µg/mL (≈ 3.03 µM)
CC(=O)NC[C@H]1CN(c2ccc(N3CCN(Cc4cc(-c5ccc(C)cc5)no4)CC3)c(F)c2)C(=O)O1 | -1.1 | 12.5 µg/mL (≈ 24.6 µM)
CC(=O)NC[C@H]1CN(c2ccc(N3CCN(C(=O)c4cc(O)no4)CC3)c(F)c2)C(=O)O1 | -1.7 | 50 µg/mL (≈ 112 µM)
CC(=O)NC[C@H]1CN(c2ccc(N3CCN(C(=O)c4cc(Cl)no4)CC3)c(F)c2)C(=O)O1 | 0.11 | 0.78 µg/mL (≈ 1.67 µM)
CC(=O)NC[C@H]1CN(c2ccc(N3CCN(C(=O)c4cc(OCCF)no4)CC3)c(F)c2)C(=O)O1 | -0.19 | 1.56 µg/mL (≈ 3.16 µM)
COc1cc(CN2CCN(c3ccc(N4C[C@H](CNC(C)=O)OC4=O)cc3F)CC2)on1 | -0.49 | 3.12 µg/mL (≈ 6.97 µM)
CC(=O)NC[C@H]1CN(c2ccc(N3CCN(C(=O)CO)CC3)c(F)c2)C(=O)O1 [EPEREZOLID] | -0.19 | 1.56 µg/mL (≈ 3.96 µM)
CC(=O)NC[C@H]1CN(c2ccc(N3CCOCC3)c(F)c2)C(=O)O1 [LINEZOLID] | – | 1.56 µg/mL (≈ 4.62 µM)
